Test results from US12655116B2, “Substituted isophthalic acid diamides” (Bayer Aktiengesellschaft, priority 2020, dated 2026).

Legend:
[1] = system: DIGSA; assay: Pre-emergence herbicidal action against DIGSA; assay type: in vivo, Digitaria sanguinalis
How it was run: (§1)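 Sandy loam pots, seeds covered with soil, then surface-treated with WP or EC formulations at 600–800 l/ha water plus 0.2% wetting agent. Greenhouse, 3 weeks. Percent damage vs untreated controls.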

[2] = system: ALOMY; assay: Post-emergence herbicidal action against ALOMY; assay type: in vivo, Alopecurus myosuroides; details: dosage 20 g/ha, visual assessment about 3 weeks after treatment vs untreated controls
How it was run: (§2)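 Visual % rating (0% = as untreated, 100% = dead) ~3 wk after spraying one-leaf-stage plants grown in sandy loam; WP/EC in water at 600–800 l/ha, 0.2% wetting agent.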

[3] = system: VERPE; assay: Pre-emergence herbicidal action against VERPE; assay type: in vivo, Veronica persica; details: dosage 80 g/ha
How it was run: as §1

[4] = system: ABUTH; assay: Post-emergence herbicidal action against ABUTH; assay type: in vivo, Abutilon theophrasti; details: visual assessment about 3 weeks after treatment vs untreated controls
How it was run: as §2

[5] = system: AMARE; assay: Post-emergence herbicidal action against AMARE; assay type: in vivo, Amaranthus retroflexus; details: 20 g/ha, visual assessment about 3 weeks after treatment, 100% = plants have died, 0% = like control plants
How it was run: as §2

[6] = system: VIOTR; assay: Pre-emergence herbicidal action against VIOTR; assay type: in vivo, Viola tricolor
How it was run: as §1

[7] = system: MATIN; assay: Pre-emergence herbicidal action against MATIN; assay type: in vivo, Matricaria inodora
How it was run: as §1

[8] = system: ECHCG; assay: Post-emergence herbicidal action against ECHCG; assay type: in vivo, Echinochloa crus-galli; details: dosage 20 g/ha
How it was run: as §2

[9] = system: MATIN; assay: Post-emergence herbicidal action against MATIN; assay type: in vivo, Matricaria inodora
How it was run: as §2

[10] = system: DIGSA; assay: Post-emergence herbicidal action against DIGSA; assay type: in vivo, Digitaria sanguinalis
How it was run: as §2

[11] = system: AVEFA; assay: Pre-emergence herbicidal action against AVEFA; assay type: in vivo, Avena fatua; details: 80 g/ha, pre-emergence
How it was run: as §1

[12] = system: ABUTH; assay: Pre-emergence herbicidal action against ABUTH; assay type: in vivo, Abutilon theophrasti
How it was run: as §1

[13] = system: ALOMY; assay: Pre-emergence herbicidal action against ALOMY; assay type: in vivo, Alopecurus myosuroides; details: 80 g/ha, pre-emergence, scored visually after 3 weeks vs untreated controls (100% = plants have died, 0% = like control plants)
How it was run: as §1

[14] = system: SETVI; assay: Pre-emergence herbicidal action against SETVI; assay type: in vivo, Setaria viridis
How it was run: as §1

[15] = system: ECHCG; assay: Pre-emergence herbicidal action against ECHCG; assay type: in vivo, Echinochloa crus-galli; details: 80 g/ha
How it was run: as §1

[16] = system: SETVI; assay: Post-emergence herbicidal action against SETVI; assay type: in vivo, Setaria viridis
How it was run: as §2

[17] = system: PHBPU; assay: Post-emergence herbicidal action against PHBPU; assay type: in vivo, Pharbitis purpurea
How it was run: as §2

[18] = system: AMARE; assay: Pre-emergence herbicidal action against AMARE; assay type: in vivo, Amaranthus retroflexus
How it was run: as §1

[19] = system: PHBPU; assay: Pre-emergence herbicidal action against PHBPU; assay type: in vivo, Pharbitis purpurea; details: dosage 80 g/ha
How it was run: as §1

[20] = system: POLCO; assay: Pre-emergence herbicidal action against POLCO; assay type: in vivo, Polygonum convolvulus; details: dosage 80 g/ha
How it was run: as §1

[21] = system: VIOTR; assay: Post-emergence herbicidal action against VIOTR; assay type: in vivo, Viola tricolor; details: Viola tricolor, 504 h
How it was run: as §2

[22] = system: VERPE; assay: Post-emergence herbicidal action against VERPE; assay type: in vivo, Veronica persica; details: Veronica persica, 504 h
How it was run: as §2

[23] = 80 g/ha, scored visually after 3 weeks vs untreated controls (100% = plants have died, 0% = like control plants)
[24] = Tripleurospermum inodorum, 504 h, dosage 20 g/ha
[25] = Setaria viridis, 504 h, dosage 20 g/ha

CCn1nnnc1NC(=O)c1ccc(C(F)F)c(C(=O)NCC(F)F)c1C [Example 2-49]
Pre-emergence action against DIGSA in % ([1]; dosage 20 g/ha): 100% | Pre-emergence action against DIGSA in % ([1]; dosage 80 g/ha): 100% | Post-emergence action against ALOMY in % [2]: 80% | Pre-emergence action against VERPE in % [3]: 100% | Post-emergence action against ABUTH in % ([4]; dosage 5 g/ha): 90% | Post-emergence action against ABUTH in % ([4]; dosage 20 g/ha): 90% | Post-emergence action at 20 g/ha against AMARE in % [5]: 100% | Pre-emergence action against VIOTR in % ([6]; dosage 20 g/ha): 90% | Pre-emergence action against VIOTR in % ([6]; dosage 80 g/ha): 100% | Pre-emergence action against MATIN in % ([7]; dosage 20 g/ha): 100% | Pre-emergence action against MATIN in % ([7]; dosage 80 g/ha): 100% | Post-emergence action against ECHCG in % [8]: 90% | Post-emergence action against MATIN in % ([9]; dosage 5 g/ha): 80% | Post-emergence action against MATIN in % ([9]; dosage 20 g/ha): 80% | Post-emergence action against DIGSA in % ([10]; 5 g/ha): 90% | Post-emergence action against DIGSA ([10]; 20 g/ha): 90% | Pre-emergence action against AVEFA in % [11]: 80% | Pre-emergence action against ABUTH (herbicidal activity) [12, 23]: 100% | Pre-emergence action against ABUTH (herbicidal activity in percent) ([12]; dosage 20 g/ha, scored visually after 3 weeks vs untreated controls, 100% = plants have died, 0% = like control plants): 100% | Pre-emergence action against ALOMY (herbicidal activity) [13]: 90% | Pre-emergence action against SETVI in % ([14]; dosage 80 g/ha): 100% | Pre-emergence action against ECHCG in % [15]: 90% | Post-emergence action against SETVI in % ([16]; dosage 20 g/ha): 90% | Post-emergence action against PHBPU in % ([17]; dosage 5 g/ha): 80% | Post-emergence action against PHBPU in % ([17]; dosage 20 g/ha): 90% | Pre-emergence action against AMARE in % ([18]; 20 g/ha, scored visually after 3 weeks vs untreated controls, 100% = plants have died, 0% = like control plants): 100% | Pre-emergence action against AMARE in % [18, 23]: 100% | Pre-emergence action against PHBPU in % [19]: 80% | Pre-emergence action against POLCO in % [20]: 90%

CNC(=O)c1c(C(F)F)ccc(C(=O)Nc2nnnn2C)c1C1CC1 [Example 1-304]
pest or weed control at 20 g/ha ([1]; Digitaria sanguinalis, 504 h, dosage 20 g/ha): 100% | pest or weed control at 80 g/ha ([1]; Digitaria sanguinalis, 504 h, dosage 80 g/ha): 100% | pest or weed control at 80 g/ha ([3]; Veronica persica, 504 h): 100% | pest or weed control at 5 g/ha ([4]; Abutilon theophrasti, 504 h, dosage 5 g/ha): 90% | pest or weed control at 20 g/ha ([4]; Abutilon theophrasti, 504 h, dosage 20 g/ha): 90% | pest or weed control at 20 g/ha ([5]; Amaranthus retroflexus, 504 h): 90% | pest or weed control at 20 g/ha ([6]; Viola tricolor, 504 h, dosage 20 g/ha): 100% | pest or weed control at 80 g/ha ([6]; Viola tricolor, 504 h, dosage 80 g/ha): 100% | pest or weed control at 20 g/ha [7, 24]: 90% | pest or weed control at 80 g/ha ([7]; Tripleurospermum inodorum, 504 h, dosage 80 g/ha): 100% | pest or weed control at 20 g/ha ([8]; Echinochloa crus-galli, 504 h): 90% | pest or weed control at 5 g/ha ([9]; Tripleurospermum inodorum, 504 h, dosage 5 g/ha): 90% | pest or weed control at 20 g/ha [9, 24]: 90% | pest or weed control at 20 g/ha ([10]; Digitaria sanguinalis, 504 h, 20 g/ha): 90% | pest or weed control at 80 g/ha ([12]; Abutilon theophrasti, 504 h, 80 g/ha, scored visually after 3 weeks vs untreated controls (100% = plants have died, 0% = like control plants)): 100% | pest or weed control at 20 g/ha ([12]; Abutilon theophrasti, 504 h, dosage 20 g/ha, scored visually after 3 weeks vs untreated controls, 100% = plants have died, 0% = like control plants, read-out: Pre-emergence action against ABUTH (herbicidal activity in percent)): 100% | pest or weed control at 20 g/ha [14, 25]: 90% | pest or weed control at 80 g/ha ([14]; Setaria viridis, 504 h, dosage 80 g/ha): 100% | pest or weed control at 80 g/ha ([15]; Echinochloa crus-galli, 504 h): 100% | pest or weed control at 5 g/ha ([16]; Setaria viridis, 504 h, dosage 5 g/ha): 90% | pest or weed control at 20 g/ha [16, 25]: 90% | pest or weed control at 5 g/ha ([21]; 5 g/ha): 80% | pest or weed control at 20 g/ha ([21]; 20 g/ha): 90% | pest or weed control at 20 g/ha ([18]; Amaranthus retroflexus, 504 h, 20 g/ha, scored visually after 3 weeks vs untreated controls, 100% = plants have died, 0% = like control plants): 100% | pest or weed control at 80 g/ha ([18]; Amaranthus retroflexus, 504 h, 80 g/ha, scored visually after 3 weeks vs untreated controls, 100% = plants have died, 0% = like control plants): 100% | pest or weed control at 80 g/ha ([19]; Ipomoea purpurea, 504 h): 80% | pest or weed control at 5 g/ha ([22]; 5 g/ha): 80% | pest or weed control at 20 g/ha ([22]; 20 g/ha): 80% | pest or weed control at 80 g/ha ([20]; Fallopia convolvulus, 504 h): 80%
